What was measured:
Format in all cases: in vivo
[1] = tested on: diamondback moth (Plutella xylostella); assay: Test A: control of diamondback moth on radish plant, foliar spray; details: sprayed at 50 ppm, held 6 days
Method in brief: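 Radish plants 12–14 days old, pre-infested with about 50 neonate larvae, sprayed at 50 ppm in 10% acetone/water with 300 ppm X-77 surfactant; three replicates. After 6 days at 25° C and 70% RH, feeding damage was scored visually and mortality counted.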

[2] = tested on: fall armyworm (Spodoptera frugiperda); assay: Test B: control of fall armyworm on corn (maize) plant, foliar spray; details: sprayed at 50 ppm
Method in brief: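 4-5-day-old corn plants pre-infested with 10-15 1-day-old larvae on insect diet, then sprayed with compound at 50 ppm in 10% acetone/90% water with 300 ppm surfactant, three replicates. Held 6 days at 25° C, 70% RH; feeding damage assessed visually and mortality rated.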

[3] = tested on: western flower thrips (Frankliniella occidentalis); assay: Test E: control of western flower thrips on Soleil bean plant, contact and/or systemic; details: held 6 days
Method in brief: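 5–7-day-old Soleil bean plants were sprayed at 250 or 50 ppm in 10% acetone/90% water with 300 ppm X-77 surfactant, three replicates. After drying 1 h, 22–27 adult thrips were added per unit. Mortality and plant damage were rated after 6 days at 25 °C and 45–55% RH.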

Measured: levels of control efficacy (20% or less feeding damage or 80% or more mortality)

CSCCNC(=O)c1ccc(C2=NOC(c3cc(Cl)cc(C(F)(F)F)c3)(C(F)(F)F)C2)c2ccccc12 (stereo not drawn) [Compound 65]
very good to excellent: [1] | [2] | [3]; sprayed at 50 ppm | [3]; sprayed at 250 ppm

CS(=O)(=O)CCNC(=O)c1ccc(C2=NOC(c3cc(Br)cc(C(F)(F)F)c3)(C(F)(F)F)C2)c2ccccc12 (racemic) [Compound 54]
very good to excellent: [1] | [2] | [3]; sprayed at 50 ppm | [3]; sprayed at 250 ppm

CC(C)CNC(=O)C(C)NC(=O)c1ccc(C2=NOC(c3cc(C(F)(F)F)cc(C(F)(F)F)c3)(C(F)(F)F)C2)c2ccccc12 (stereo not drawn) [Compound 90]
very good to excellent: [1] | [2] | [3]; sprayed at 50 ppm

CSCCNC(=O)c1ccc(C2=NOC(c3cc(Br)cc(C(F)(F)F)c3)(C(F)(F)F)C2)c2ccccc12 (racemic) [Compound 50]
very good to excellent: [1] | [2] | [3]; sprayed at 50 ppm | [3]; sprayed at 250 ppm

CCNC(=O)C(C)NC(=O)c1ccc(C2=NOC(c3cc(C(F)(F)F)cc(C(F)(F)F)c3)(C(F)(F)F)C2)c2ccccc12 (stereo not drawn) [Compound 88]
very good to excellent: [1] | [2] | [3]; sprayed at 50 ppm | [3]; sprayed at 250 ppm

O=C(CNC(=O)c1ccc(C2=NOC(c3cccc(C(F)(F)F)c3)(C(F)(F)F)C2)c2ccccc12)NCC(F)(F)F (racemic) [Compound 35]
very good to excellent: [1] | [2] | [3]; sprayed at 250 ppm

CC(C)CNC(=O)CNC(=O)c1ccc(C2=NOC(c3cc(Cl)cc(Cl)c3)(C(F)(F)F)C2)c2ccccc12 (stereo not drawn) [Compound 6]
very good to excellent: [1] | [2] | [3]; sprayed at 50 ppm | [3]; sprayed at 250 ppm

CSCCNC(=O)c1ccc(C2=NOC(c3cc(C(F)(F)F)cc(C(F)(F)F)c3)(C(F)(F)F)C2)c2ccccc12 (racemic) [Compound 58]
very good to excellent: [1] | [2] | [3]; sprayed at 50 ppm | [3]; sprayed at 250 ppm

CS(=O)(=O)CCNC(=O)c1ccc(C2=NOC(c3cc(F)cc(C(F)(F)F)c3)(C(F)(F)F)C2)c2ccccc12 (racemic) [Compound 134]
very good to excellent: [1] | [2] | [3]; sprayed at 50 ppm | [3]; sprayed at 250 ppm

O=C(CNC(=O)c1ccc(C2=NOC(c3cc(Cl)c(Cl)c(Cl)c3)(C(F)(F)F)C2)c2ccccc12)NCC(F)(F)F (stereo not drawn) [Compound 19]
very good to excellent: [1] | [2] | [3]; sprayed at 50 ppm | [3]; sprayed at 250 ppm

CC(C)NC(=O)C(C)NC(=O)c1ccc(C2=NOC(c3cc(C(F)(F)F)cc(C(F)(F)F)c3)(C(F)(F)F)C2)c2ccccc12 (mixture of isomers) [Compound 83]
very good to excellent: [1] | [2] | [3]; sprayed at 50 ppm | [3]; sprayed at 250 ppm

CCSCCNC(=O)c1ccc(C2=NOC(c3cc(C(F)(F)F)cc(C(F)(F)F)c3)(C(F)(F)F)C2)c2ccccc12 (stereo not drawn) [Compound 92]
very good to excellent: [1] | [2] | [3]; sprayed at 50 ppm | [3]; sprayed at 250 ppm

CSCC(C)NC(=O)c1ccc(C2=NOC(c3cc(Cl)cc(Cl)c3)(C(F)(F)F)C2)c2ccccc12 (mixture of isomers) [Compound 29]
very good to excellent: [1] | [2] | [3]; sprayed at 50 ppm | [3]; sprayed at 250 ppm

CCSCCCNC(=O)c1ccc(C2=NOC(c3cccc(C(F)(F)F)c3)(C(F)(F)F)C2)c2ccccc12 (racemic) [Compound 48]
very good to excellent: [1] | [2] | [3]; sprayed at 250 ppm

CCN(C)C(=O)CNC(=O)c1ccc(C2=NOC(c3cc(Cl)cc(Cl)c3)(C(F)(F)F)C2)c2ccccc12 (stereo not drawn) [Compound 7]
very good to excellent: [1] | [2] | [3]; sprayed at 50 ppm | [3]; sprayed at 250 ppm

From US8410153B2, “Naphthalene isoxazoline invertebrate pest control agents” (E.I. du Pont de Nemours and Company, priority 2007, dated 2013)
